From patent US20110230558A1 (priority 2008, published 2011)

Assays:
[1] = system: Penicillium funiculosum CECT 2914; details: Fungi; cited from earlier work
[2] = system: Rhodotorula rubra CECT 1158; details: Yeast; cited from earlier work
[3] = system: S. typhimurium LPS; assay: Endotoxin deactivation as a function of LAE concentration, LAL assay; type: biochemical, Salmonella typhimurium; details: for CONCENTRATION Endotoxin: S. typhimurium LPS 10 μg/ml, 2 hours at 37° C., control without LAE 17000
Experimental: The 1 mg/ml stock solution of S. typhimurium LPS was prepared using the commercially available LPS obtained from the List Biological Laboratories, Inc. (cat #225). The 20 μg/ml solution of LPS was prepared by serially diluting the stock. All the LPS solutions were kept at refrigeration temperatures according to the instructions provided by the manufacturer.
The solutions of LAE prepared were used in the experiment. For the procedure, 500 μl of 20 μg/ml of endotoxins were mixed with 500 μl of LAE solution (10, 20, 40, 60 and 100 μg/ml) in glass reaction tubes, giving the final concentration of LPS, 10 μg/ml and the concentration range of LAE, 5-50 μg/ml. As a negative control, LPS was mixed with 1 mg/ml aqueous solution of propylene glycol. The mixture was incubated for 2 hours at 37° C. Each sample was serially diluted using the LAL reagent water to be assayed for the endotoxin activity.

[4] = system: Staphylococcus aureus ATCC 6538; details: Gram + bacteria; cited from earlier work
[5] = system: Citrobacter freundii ATCC 22636; details: Gram − bacteria; cited from earlier work
[6] = system: Micrococcus luteus ATCC 9631; details: Gram + bacteria; cited from earlier work
[7] = system: Chaetonium globosum ATCC 6205; details: Fungi; cited from earlier work
[8] = system: Lactobacillus delbrueckii ssp lactis CECT 372; details: Gram + bacteria; cited from earlier work
[9] = system: Gliocadium virens ATCC 4645; details: Fungi; cited from earlier work
[10] = animals and humans; cited from earlier work
[11] = system: Candida albicans ATCC 10231; details: Yeast; cited from earlier work
[12] = system: Aureobasidium pullulans ATCC 9348; details: Fungi; cited from earlier work
[13] = system: Salmonella typhimurium ATCC 16028; details: Gram − bacteria; cited from earlier work
[14] = system: Aspergillus niger ATCC 14604; details: Fungi; cited from earlier work
[15] = system: Penicillium chrysogenum CECT 2802; details: Fungi; cited from earlier work
[16] = rats; cited from earlier work
[17] = system: Bacillus subtilis ATCC 6633; details: Gram + bacteria; cited from earlier work
[18] = system: Listeria monocytogenes ATCC 7644; details: Gram + bacteria; cited from earlier work
[19] = system: Pseudomonas aeruginosa ATCC 9027; details: Gram − bacteria; cited from earlier work
[20] = system: Proteus mirabilis CECT 170; details: Gram − bacteria; cited from earlier work
[21] = system: Arthrobacter oxydans ATCC 8010; details: Gram + bacteria; cited from earlier work
[22] = system: Klebsiella pneumoniae var pneumoniae CECT 178; details: Gram − bacteria; cited from earlier work
[23] = system: Serratia marcenses CECT 274; details: Gram − bacteria; cited from earlier work
[24] = system: Clostridium perfringens ATCC 77454; details: Gram + bacteria; cited from earlier work
[25] = system: Leuconostoc mesenteroides CETC 912; details: Gram + bacteria; cited from earlier work
[26] = system: Enterobacter aerogenes CECT 689; details: Gram − bacteria; cited from earlier work
[27] = system: endotoxins produced by E. coli O113:H10; assay: Endotoxin deactivation by LAE, LAL assay (turbidimetric, pyrochrome); type: biochemical; details: E. coli O113:H10 endotoxin 12.5 μg/ml, incubated two hours at 37° C., control without LAE 120
Experimental: Turbidimetric LAL test was conducted according to the instructions provided by the manufacturer (Pyrotell-T, The associates of Cape Cod, Inc.). The standard curve was built based on 300, 30, 3, 0.3, 0.03 and 0.003 EU/ml. The same endotoxin in concentrations of 12.5 μg/ml was used in the experiment.
LAE was applied in concentrations of 0, 5, 10, 20, 30, 50 μg/ml to assess this compound's ability to deactivate endotoxins. LAL reagent water (LRW) was used to make all the endotoxin dilutions including the standards. MIRENAT-CF is a 10.5% solution of LAE in Propylene glycol, so the dilutions of MIRENAT-CF were initially made in propylene glycol, so that concentration of LAE was kept as the only variable. For the presumptive deactivation procedure, the endotoxin was incubated together with LAE for two hours at 37° C. The turbidimetric assay was conducted two times using the onset time for OD405=0.05. The pyrochrome assay was conducted once using the same template on plates.

[28] = system: Escherichia coli ATCC 8739; details: Gram − bacteria; cited from earlier work
[29] = system: Alcaligenes faecalis ATCC 8750; details: Gram − bacteria; cited from earlier work
[30] = system: Bacillus cereus var mycoide ATCC 11778; details: Gram + bacteria; cited from earlier work
[31] = system: Bordetella bronchiseptica ATCC 4617; details: Gram − bacteria; cited from earlier work
[32] = system: Human epithelial cell lines (KB); assay: LPS-induced release of peptidases from human cell culture, fluorigenic substrate; type: cell-based; details: for Peptidase released: LAE 2 μg/ml; for Peptidase released / reduction of the toxicity of LPS (measured by fluorescence release): KB cells
Experimental: Human epithelial cell lines (KB) were obtained from American Cell type collection and grown in BGJ medium (Gibco, Buffalo, N.Y.) at 37° C. with 5% CO2. The medium was supplemented with 5% heated calf serum. Cells were placed in 24 well dishes with 0.5 ml medium per well. The release of peptidases from the human cell lines in response to LPS was measured by a coumarin based fluorigenic substrate utilized to study eukaryotic enzymes that degrade extracellular matrix proteins (collagen and fibronectin) and inactivated by inhibitors of matrix of metalloprotease (Yang et al. Abstract 105 at the 105th ASM general meeting).
The release of peptidase was measured by sensitive fluorescence test.

[33] = system: Saccharomyces cerevisiae ATCC 9763; details: Yeast; cited from earlier work

ethyl ester of the lauramide of the arginine monohydrochloride [LAE]
M.I.C. [1]: 16 ppm
M.I.C. [2]: 16 ppm
CONCENTRATION Endotoxin ([3]; LAE 5 μg/ml (as MIRENAT-CF)): 4000 EU/ml × 10E3
CONCENTRATION Endotoxin ([3]; LAE 10 μg/ml (as MIRENAT-CF)): 3995 EU/ml × 10E3
CONCENTRATION Endotoxin ([3]; LAE 20 μg/ml (as MIRENAT-CF)): 3000 EU/ml × 10E3
CONCENTRATION Endotoxin ([3]; LAE 30 μg/ml (as MIRENAT-CF)): 4000 EU/ml × 10E3
CONCENTRATION Endotoxin ([3]; LAE 50 μg/ml (as MIRENAT-CF)): 2500 EU/ml × 10E3
dose response of the deactivation effect ([3]; LAE concentration range 5-50 μg/ml): does not follow a dose response
effect on the activity of S. typhimurium endotoxins ([3]; LAE in concentrations of 5-50 μg/ml): significantly decreased
M.I.C. [4]: 32 ppm
M.I.C. [5]: 64 ppm
M.I.C. [6]: 128 ppm
M.I.C. [7]: 16 ppm
M.I.C. [8]: 16 ppm
M.I.C. [9]: 32 ppm
toxicity [10]: completely harmless to animals and humans
M.I.C. [11]: 16 ppm
M.I.C. [12]: 16 ppm
M.I.C. [13]: 32 ppm
M.I.C. [14]: 32 ppm
M.I.C. [15]: 128 ppm
absorption and metabolism [16]: fast absorption and metabolisation into naturally-occurring amino acids and the fatty acid lauric acid
M.I.C. [17]: 16 ppm
M.I.C. [18]: 10 ppm
M.I.C. [19]: 32 ppm
M.I.C. [20]: 64 ppm
M.I.C. [21]: 64 ppm
M.I.C. [22]: 32 ppm
M.I.C. [23]: 2 ppm
M.I.C. [24]: 16 ppm
M.I.C. [25]: 32 ppm
M.I.C. [26]: 32 ppm
CONCENTRATION Endotoxin ([27]; LAE 10 μg/ml): 80 EU/ml × 10E3
CONCENTRATION Endotoxin ([27]; LAE 50 μg/ml): 61 EU/ml × 10E3
M.I.C. [28]: 32 ppm
M.I.C. [29]: 64 ppm
M.I.C. [30]: 32 ppm
M.I.C. [31]: 128 ppm
release of peptidase by LAE per se ([32]; 2 μg LAE/ml without LPS, similar to the blank): less than 300 units
peptidase response to LPS ([32]; LAE 2 μg/ml added to LPS, both doses of LPS tested (10 and 20 μg/ml)): significant reduction of peptidase response
Peptidase released ([32]; LPS 0 μg/ml, blank sample 400): 296 Fluorescence units
Peptidase released ([32]; LPS 10 μg/ml, LPS alone 900): 580 Fluorescence units
Peptidase released ([32]; LPS 20 μg/ml, LPS alone 1200): 655 Fluorescence units
reduction of the toxicity of LPS (measured by fluorescence release) ([32]; LPS 10 μg/ml pre-mixed with 2 μg/ml of LAE): 35.6%
reduction of the toxicity of LPS (measured by fluorescence release) ([32]; LPS 20 μg/ml pre-mixed with 2 μg/ml of LAE): 45.4%
M.I.C. [33]: 32 ppm
